Source: ChEMBL document CHEMBL1201862, “PubChem BioAssay data set” (2004)
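Tested at 5 concentrations; 48 h exposure; 96-well plates; endpoints linearly interpolated, else capped at highest concentration. GI50: concentration for 50% inhibition of growth.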 The source made the active and inactive calls. Rule as the data show it: active = GI50 up to about 1.1 µM and inactive = higher.

Columns and labels:
Assay in all cases: NCI anticancer screen, dose series, 48 h
CAKI-1 = system: CAKI-1
MDA-MB-435 = system: MDA-MB-435
IGROV-1 = system: IGROV-1
SR = system: SR
OVCAR-5 = system: OVCAR-5
UACC-62 = system: UACC-62
NCI/ADR-RES = system: NCI/ADR-RES
MDA-MB-231 = system: MDA-MB-231
SF-268 = system: SF-268
CCRF-CEM = system: CCRF-CEM
TK-10 = system: TK-10
OVCAR-3 = system: OVCAR-3
HOP-62 = system: HOP-62
UO-31 = system: UO-31
SW-620 = system: SW-620
HL-60 = system: HL-60
LOX IMVI = system: LOX IMVI
COLO 205 = system: COLO 205
A549 = system: A549
HCC 2998 = system: HCC 2998

Row | SMILES | GI50 (CAKI-1) | GI50 (MDA-MB-435) | GI50 (IGROV-1) | GI50 (SR) | GI50 (OVCAR-5) | GI50 (UACC-62) | GI50 (NCI/ADR-RES) | GI50 (MDA-MB-231) | GI50 (SF-268) | GI50 (CCRF-CEM) | GI50 (TK-10) | GI50 (OVCAR-3) | GI50 (HOP-62) | GI50 (UO-31) | GI50 (SW-620) | GI50 (HL-60) | GI50 (LOX IMVI) | GI50 (COLO 205) | GI50 (A549) | GI50 (HCC 2998)
1 | COc1cccc2c1OC1(C=C2)Oc2ccccc2C(=O)N1C (stereo not given) | 8.18 µM (inactive) | 21.6 µM (inactive) | 27.7 µM (inactive) | 3.55 µM (inactive) | 78.3 µM (inactive) | 40.6 µM (inactive) | 3.91 µM (inactive) | 27.2 µM (inactive) | 34.3 µM (inactive) | 12.2 µM (inactive) | 24.9 µM (inactive) | 37.8 µM (inactive) | 51.5 µM (inactive) | 19.8 µM (inactive) | 42.7 µM (inactive) | 19.3 µM (inactive) | 2.05 µM (inactive) | 31.7 µM (inactive) | 41.6 µM (inactive) | 26.7 µM (inactive)
2 | SCc1ccc(-c2ccc(CS)cc2)cc1 | 4.42 µM (inactive) | 5.74 µM (inactive) | 13.5 µM (inactive) | 2.42 µM (inactive) | 12.3 µM (inactive) | 14.9 µM (inactive) | 7.16 µM (inactive) | 11.2 µM (inactive) | 3.33 µM (inactive) | 1.43 µM (inactive) | 24.3 µM (inactive) | 16.4 µM (inactive) | 6.75 µM (inactive) | 18.4 µM (inactive) | 22.2 µM (inactive) | 3.25 µM (inactive) | 4 µM (inactive) | 18 µM (inactive) | 20.5 µM (inactive) | 15.6 µM (inactive)
3 | C=CCOC(=O)NC1C(OC(C)[C@@H](NC(=O)OCc2ccccc2)C(=O)OC(C)(C)C)OC(COC(C)=O)C(OC(C)=O)C1OC(C)=O (stereo not given in full) | > 100 µM (inactive) | 39.4 µM (inactive) | > 100 µM (inactive) | 79.8 µM (inactive) | > 100 µM (inactive) | > 100 µM (inactive) | 50.6 µM (inactive) | 15.1 µM (inactive) | > 100 µM (inactive) | 53.3 µM (inactive) | > 100 µM (inactive) | > 100 µM (inactive) | > 100 µM (inactive) | 17.2 µM (inactive) | > 100 µM (inactive) | 69.5 µM (inactive) | 86.7 µM (inactive) | > 100 µM (inactive) | > 100 µM (inactive) | > 100 µM (inactive)
4 | O=C1c2sccc2C(=O)c2c(CO)csc21 | 15.1 µM (inactive) | 1.94 µM (inactive) | 4.03 µM (inactive) | 3.42 µM (inactive) | 21.2 µM (inactive) | 2.52 µM (inactive) | 3.63 µM (inactive) | 17.2 µM (inactive) | 6.5 µM (inactive) | 3.37 µM (inactive) | 7.05 µM (inactive) | 1.9 µM (inactive) | 4.71 µM (inactive) | 7.76 µM (inactive) | 6.98 µM (inactive) | 1.29 µM (inactive) | 2.88 µM (inactive) | 2.69 µM (inactive) | 0.695 µM (active) | 3.44 µM (inactive)
5 | COc1ccc2c(=O)cc(-c3ccc(OC)c(OC)c3OC)oc2c1 | > 82.4 µM (inactive) | > 100 µM (inactive) | > 83.4 µM (inactive) | 74.8 µM (inactive) | > 69 µM (inactive) | 48.8 µM (inactive) | 28.4 µM (inactive) | 38.7 µM (inactive) | > 60.1 µM (inactive) | > 31.6 µM (inactive) | > 100 µM (inactive) | > 44.4 µM (inactive) | > 85.3 µM (inactive) | > 100 µM (inactive) | > 100 µM (inactive) | 30.1 µM (inactive) | > 75.7 µM (inactive) | > 71.8 µM (inactive) | 4.81 µM (inactive) | > 63.8 µM (inactive)
6 | CC1=C[C@H](C[C@]2(C)c3c(c4c(C)cccc4oc3=O)O[C@@H]2C)OC1=O | > 100 µM (inactive) | 41.7 µM (inactive) | > 100 µM (inactive) | 22.4 µM (inactive) | > 100 µM (inactive) | 73.1 µM (inactive) | 20.1 µM (inactive) | 40.2 µM (inactive) | 24.4 µM (inactive) | 19.3 µM (inactive) | > 100 µM (inactive) | 37 µM (inactive) | > 100 µM (inactive) | 32.5 µM (inactive) | 21.7 µM (inactive) | 22.5 µM (inactive) | 34.3 µM (inactive) | 49.9 µM (inactive) | > 100 µM (inactive) | > 100 µM (inactive)
7 | COC(=O)c1oc([N+](=O)[O-])c(Cl)c1Cl | 2.44 µM (inactive) | 7.8 µM (inactive) | 7.67 µM (inactive) | 2.08 µM (inactive) | 8.13 µM (inactive) | 8.47 µM (inactive) | 13.4 µM (inactive) | 7.35 µM (inactive) | 8.28 µM (inactive) | 2.21 µM (inactive) | 7.36 µM (inactive) | 6.1 µM (inactive) | 8.71 µM (inactive) | 8.07 µM (inactive) | 4.07 µM (inactive) | 1.34 µM (inactive) | 6.05 µM (inactive) | 4.12 µM (inactive) | 8.51 µM (inactive) | 20 µM (inactive)
8 | COc1ccc(/C=C/C(=O)c2cc(C(C)(C)C)c(O)c(C(C)(C)C)c2)cc1OC | 10.7 µM (inactive) | 3.2 µM (inactive) | 17.7 µM (inactive) | 0.551 µM (active) | 25.2 µM (inactive) | 10 µM (inactive) | 4.85 µM (inactive) | 6.4 µM (inactive) | 17.9 µM (inactive) | 2.83 µM (inactive) | 6.82 µM (inactive) | 4.97 µM (inactive) | 23 µM (inactive) | 5.16 µM (inactive) | 4.32 µM (inactive) | 2.84 µM (inactive) | 8.75 µM (inactive) | 5.74 µM (inactive) | 8.59 µM (inactive) | 2.27 µM (inactive)
9 | COc1ccc(/C=C/C(=O)/C=C/c2ccc(OC)cc2)cc1 | > 100 µM (inactive) | 14.6 µM (inactive) | 45.6 µM (inactive) | 22.5 µM (inactive) | > 100 µM (inactive) | > 100 µM (inactive) | 97.1 µM (inactive) | 89.1 µM (inactive) | 54.6 µM (inactive) | 31.8 µM (inactive) | 73.3 µM (inactive) | 32.1 µM (inactive) | > 100 µM (inactive) | > 100 µM (inactive) | 23.7 µM (inactive) | 20 µM (inactive) | 40.4 µM (inactive) | 34.5 µM (inactive) | 46 µM (inactive) | 0.222 µM (active)
10 | Nn1c(-c2ccccc2)n[nH]c1=O | > 100 µM (inactive) | > 100 µM (inactive) | > 100 µM (inactive) | > 100 µM (inactive) | > 100 µM (inactive) | > 100 µM (inactive) | > 100 µM (inactive) | > 100 µM (inactive) | > 100 µM (inactive) | > 100 µM (inactive) | > 100 µM (inactive) | > 100 µM (inactive) | > 100 µM (inactive) | > 100 µM (inactive) | > 100 µM (inactive) | > 100 µM (inactive) | > 100 µM (inactive) | > 100 µM (inactive) | > 100 µM (inactive) | > 100 µM (inactive)
11 | CSc1c(C(=O)Nc2ccc(Cl)cc2)c(N)nn1-c1ccccc1 | > 100 µM (inactive) | > 100 µM (inactive) | > 100 µM (inactive) | > 100 µM (inactive) | > 100 µM (inactive) | > 100 µM (inactive) | > 58.7 µM (inactive) | 40.8 µM (inactive) | > 100 µM (inactive) | > 100 µM (inactive) | > 38.9 µM (inactive) | > 100 µM (inactive) | 80 µM (inactive) | > 44.8 µM (inactive) | > 100 µM (inactive) | > 100 µM (inactive) | > 100 µM (inactive) | > 100 µM (inactive) | > 24.5 µM (inactive) | > 100 µM (inactive)
12 | O=c1[nH]/c(=C/c2ccc(OCc3ccccc3)cn2)c(=O)[nH]/c1=C/c1ccccc1 | 0.194 µM (active) | 0.0434 µM (active) | 0.207 µM (active) | 0.289 µM (active) | 1.07 µM (active) | 0.191 µM (active) | 0.0794 µM (active) | 0.59 µM (active) | 0.206 µM (active) | 0.126 µM (active) | 0.164 µM (active) | 0.114 µM (active) | 0.239 µM (active) |  | 0.158 µM (active) | 0.091 µM (active) | 0.207 µM (active) | 1.06 µM (active) | 0.594 µM (active) | 0.175 µM (active)
13 | CC1=CC(=O)CC(C)(C)C1/C=C/C(C)=C/C=C/C(C)=C/C=C/C=C(C)/C=C/C=C(C)/C=C/C1=C(C)CC(O)CC1(C)C (stereo not given) | 39.3 µM (inactive) | 25 µM (inactive) | 39.1 µM (inactive) | 0.0422 µM (active) | 57.3 µM (inactive) |  | 51.5 µM (inactive) | 64.3 µM (inactive) | 50.9 µM (inactive) | 24.9 µM (inactive) | 50.2 µM (inactive) | 25.2 µM (inactive) | 47 µM (inactive) | 44.8 µM (inactive) | 15.7 µM (inactive) | 18.6 µM (inactive) | 31.3 µM (inactive) |  |  | 23.8 µM (inactive)
14 | COc1cc(C2SCC(=O)N2Cc2ccccc2)cc(OC)c1OC (stereo not given) | > 100 µM (inactive) | > 100 µM (inactive) | 84.3 µM (inactive) | > 100 µM (inactive) | > 100 µM (inactive) | 97.9 µM (inactive) | > 100 µM (inactive) | > 100 µM (inactive) | > 100 µM (inactive) | > 100 µM (inactive) | > 100 µM (inactive) | > 100 µM (inactive) |  | > 100 µM (inactive) | > 100 µM (inactive) | > 100 µM (inactive) | > 100 µM (inactive) | > 100 µM (inactive) | > 100 µM (inactive) | > 100 µM (inactive)
